The target of one assay is T1, ANO2 (Homo sapiens, UniProt Q9NQ90).
T1 sequence (Q9NQ90 1-998): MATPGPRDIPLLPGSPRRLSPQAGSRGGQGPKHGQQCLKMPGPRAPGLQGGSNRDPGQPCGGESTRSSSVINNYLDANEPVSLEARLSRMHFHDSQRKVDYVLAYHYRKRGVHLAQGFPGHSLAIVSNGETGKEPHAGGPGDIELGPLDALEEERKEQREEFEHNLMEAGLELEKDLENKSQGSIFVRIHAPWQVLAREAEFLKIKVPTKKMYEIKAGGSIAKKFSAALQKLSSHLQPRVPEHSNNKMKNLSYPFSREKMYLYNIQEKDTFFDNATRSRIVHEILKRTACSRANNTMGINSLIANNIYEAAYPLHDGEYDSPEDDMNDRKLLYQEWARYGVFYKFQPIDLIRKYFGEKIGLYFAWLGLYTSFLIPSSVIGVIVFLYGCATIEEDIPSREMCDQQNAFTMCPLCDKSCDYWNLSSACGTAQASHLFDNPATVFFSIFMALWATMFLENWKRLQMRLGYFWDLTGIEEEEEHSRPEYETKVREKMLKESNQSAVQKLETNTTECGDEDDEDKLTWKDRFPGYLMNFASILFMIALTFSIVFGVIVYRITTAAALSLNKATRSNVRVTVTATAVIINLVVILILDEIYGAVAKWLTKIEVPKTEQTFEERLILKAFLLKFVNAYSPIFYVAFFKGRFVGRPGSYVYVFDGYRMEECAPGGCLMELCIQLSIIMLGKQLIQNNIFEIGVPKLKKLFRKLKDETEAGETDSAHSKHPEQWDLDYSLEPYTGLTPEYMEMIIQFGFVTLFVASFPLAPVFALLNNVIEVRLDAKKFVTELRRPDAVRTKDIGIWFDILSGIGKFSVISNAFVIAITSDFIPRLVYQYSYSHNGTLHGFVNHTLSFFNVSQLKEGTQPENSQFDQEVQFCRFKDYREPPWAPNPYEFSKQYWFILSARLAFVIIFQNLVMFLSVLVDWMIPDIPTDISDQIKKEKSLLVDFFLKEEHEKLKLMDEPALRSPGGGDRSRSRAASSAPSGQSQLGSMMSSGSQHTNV
Nature of the assay: YFP fluorescence quenching assay in FRT cells expressing human ANO2. The format is cell-based.

In assay [1] the target is T2, ANO1 (anoctamin1, TMEM16A) (Homo sapiens, UniProt Q5XXA6).
T2 sequence (Q5XXA6 1-986): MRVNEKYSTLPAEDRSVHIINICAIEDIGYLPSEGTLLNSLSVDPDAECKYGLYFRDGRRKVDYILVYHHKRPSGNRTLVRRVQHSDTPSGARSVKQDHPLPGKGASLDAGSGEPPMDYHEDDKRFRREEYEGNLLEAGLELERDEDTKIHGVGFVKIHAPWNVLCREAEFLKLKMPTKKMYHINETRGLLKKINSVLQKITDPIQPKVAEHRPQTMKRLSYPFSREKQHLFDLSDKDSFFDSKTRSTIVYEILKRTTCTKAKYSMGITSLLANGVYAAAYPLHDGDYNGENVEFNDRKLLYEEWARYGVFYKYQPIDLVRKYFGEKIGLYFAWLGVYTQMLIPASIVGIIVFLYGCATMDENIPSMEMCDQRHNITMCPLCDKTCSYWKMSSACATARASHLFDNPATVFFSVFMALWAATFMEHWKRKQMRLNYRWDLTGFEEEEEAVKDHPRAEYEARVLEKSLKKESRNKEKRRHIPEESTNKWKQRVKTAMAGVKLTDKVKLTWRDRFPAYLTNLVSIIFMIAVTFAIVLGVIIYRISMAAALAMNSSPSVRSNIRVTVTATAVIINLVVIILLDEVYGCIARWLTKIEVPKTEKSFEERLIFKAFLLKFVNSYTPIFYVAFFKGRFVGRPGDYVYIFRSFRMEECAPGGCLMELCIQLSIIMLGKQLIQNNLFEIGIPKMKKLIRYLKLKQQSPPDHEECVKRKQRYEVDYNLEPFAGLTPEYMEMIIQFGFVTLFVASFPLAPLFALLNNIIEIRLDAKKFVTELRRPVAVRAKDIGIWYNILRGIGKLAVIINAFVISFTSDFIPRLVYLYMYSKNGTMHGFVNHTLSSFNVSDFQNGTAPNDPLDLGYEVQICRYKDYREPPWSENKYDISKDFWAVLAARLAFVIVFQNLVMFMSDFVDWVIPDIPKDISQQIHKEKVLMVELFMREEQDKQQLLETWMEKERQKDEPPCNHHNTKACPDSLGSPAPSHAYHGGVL
Put plainly: YFP fluorescence quenching assay in FRT cells expressing human ANO1; confirmed by short-circuit current (PC-3 cells IC50 […]). The format is cell-based.

In the case of `C=CC1=C(C)C2=Cc3c(C=C)c(C)c4[n]3[Fe]([Cl])[n]3c(c(C)c(CCC(=O)O)c3=CC3=NC(=C4)C(C)=C3CCC(=O)O)=CC1=N2` [hemin], the IC50 (in general, the midpoint of a concentration-inhibition curve) is 4.09 µM on ANO2 and 510 nM in assay [1].

The values above are taken from PMC11172662, “Anticancer Effect of Hemin through ANO1 Inhibition in Human Prostate Cancer Cells” (International Journal of Molecular Sciences, 2024).
